From ChEMBL document CHEMBL4196078, “Polypharmacology in HIV inhibition: can a drug with simultaneous action against two relevant targets be an alternative to combination therapy?” (Eur J Med Chem, 2018)
Converted amounts (≈) assume the structure as drawn.

Tests used:
[1] = target: T1, Human immunodeficiency virus type 1 reverse transcriptase (Human immunodeficiency virus 1, UniProt Q72547); assay: Inhibition of HIV1 reverse transcriptase RNase H using RNA-DNA hybrid duplex after 30 mins by FRET-based microplate fluorescence assay
[2] = target: T1, Human immunodeficiency virus type 1 reverse transcriptase; assay: Inhibition of HIV1 reverse transcriptase polymerase p51/p66 after 10 to 20 mins in presence of [3H]-TTP by liquid scintillation counting method
[3] = system: Human immunodeficiency virus 1; assay: Antiviral activity against HIV1 3B infected in human MT4 cells; type: functional, organism-based; conditions: Human immunodeficiency virus 1, 3B
[4] = system: Human immunodeficiency virus 1; assay: Antiviral activity against HIV1; type: functional, organism-based
[5] = system: Human immunodeficiency virus 1; assay: Antiviral activity against HIV1 Lai infected in human MOLT4 cells after 7 days by WST8 assay; type: functional, organism-based; conditions: Human immunodeficiency virus 1, M:B_Lai, MOLT-4, 168 h
Hepatitis B virus = assay: Antiviral activity against HBV; type: functional, organism-based
Herpesviridae sp. [6] = assay: Antiviral activity against HSV; type: functional, organism-based
Herpesviridae sp. [7] = assay: Potency index, ratio of tenofovir EC50 to compound EC50 for antiviral activity against HSV; type: functional
[8] = target: Human immunodeficiency virus type 1 reverse transcriptase (Human immunodeficiency virus 1, UniProt Q72547, E138K); assay: Inhibition of TSAO resistant HIV1 3B reverse transcriptase E138K mutant using polyC/oligo(dG12) as template/primer in presence of [3H]dGTP and calf thymus DNA after 30 mins
[9] = target: T1, Human immunodeficiency virus type 1 reverse transcriptase; assay: Inhibition of HIV1 3B reverse transcriptase using polyC/oligo(dG12) as template/primer in presence of [3H]dGTP and calf thymus DNA after 30 mins
[10] = system: Human immunodeficiency virus 1; assay: Antiviral activity against HIV1 infected in human CEM cells assessed as reduction in giant cell formation by microscopic method; type: functional, organism-based; conditions: Human immunodeficiency virus 1, CCRF-CEM
[11] = Half life of the compound in PBS by HPLC analysis; type: physicochemical
[12] = system: Human immunodeficiency virus 1; assay: Antiviral activity against PFA-resistant HIV1 harboring RT W88G mutant infected in human P4/R5 cells after 48 hrs by beta-galactosidase reporter gene assay; type: functional, organism-based; conditions: Human immunodeficiency virus 1, P4/R5, 48 h
[13] = system: Human immunodeficiency virus 1; assay: Antiviral activity against HIV1 3B infected in human CEM/0 after 4 days by microscopic method; type: functional, organism-based; conditions: Human immunodeficiency virus 1, 3B, CCRF-CEM, 96 h
[14] = Stability in culture medium containing 10% FBS at 100 uM after 72 hrs by HPLC analysis; type: ADME; conditions: cattle, read-out: Stability
[15] = system: Moloney murine sarcoma virus; assay: Antiviral activity against MSV; type: functional, organism-based
Human alphaherpesvirus 3 = assay: Antiviral activity against VZV; type: functional, organism-based
[16] = system: Human immunodeficiency virus 2; assay: Antiviral activity against HIV2; type: functional, organism-based
[17] = system: Human immunodeficiency virus 2; assay: Antiviral activity against HIV2 D194 infected in human PBMC after 5 days by MTT assay; type: functional, organism-based, Human immunodeficiency virus type 2 (ISOLATE D194); conditions: Human immunodeficiency virus 2, 120 h
[18] = system: Human immunodeficiency virus 1; assay: Antiviral activity against HIV1 3B infected in human PBMC after 5 days by MTT assay; type: functional, organism-based; conditions: Human immunodeficiency virus 1, 3B, 120 h
[19] = system: Human immunodeficiency virus 1; assay: Antiviral activity against HIV1 3B infected in human MT4 cells by MTT assay; type: functional, organism-based; conditions: Human immunodeficiency virus 1, 3B
[20] = system: Human immunodeficiency virus 1; assay: Antiviral activity against HIV1 Lai infected in human CEM-SS cells after 5 days by MTT assay; type: functional, organism-based; conditions: Human immunodeficiency virus 1, M:B_Lai, 120 h
Gag-Pol polyprotein = Gag-Pol polyprotein (Human immunodeficiency virus type 1 group M subtype B (isolate HXB2)(HIV-1), UniProt P04585); assay: Inhibition of HIV1 reverse transcriptase polymerase; set-up: species or system Human immunodeficiency virus 1
[21] = target: T1, Human immunodeficiency virus type 1 reverse transcriptase; assay: Inhibition of HIV1 reverse transcriptase RNase H

COc1ccc2ccccc2c1/C=N/NC(=O)c1ccc(O)c(O)c1
IC50 [1]: 500 nM
IC50 [2]: > 25000 nM

CCc1c(Sc2cc(C)cc(C)c2)n(COCCO)c(=O)[nH]c1=O
EC50 [3]: 7 nM

CC(C)(C)NC(=O)[C@H]1N(C(=O)[C@@H](O)[C@H](Cc2ccccc2)NC(=O)CC(C)(C)C(=O)O)CSC1(C)C
EC50 [4]: 52 nM

Cc1cccc(C)c1OCC(=O)N[C@@H](Cc1ccccc1)[C@H](O)C(=O)N1CSC(C)(C)[C@H]1C(=O)NC(C)(C)C
EC50 [5]: 92 nM

Nc1cc(OCCOCP(=O)(O)O)nc(N)n1
EC50 (Hepatitis B virus): 300 nM
EC50 (Herpesviridae sp. [6]): 6.3 µg/mL (≈ 23.8 µM)
Ratio EC50 (Herpesviridae sp. [7]): 20
EC50 [4]: 0.8 µg/mL

CCOC(=O)P(=O)(O)OCCCn1c(=O)c(C)cn([C@@H]2O[C@H](CO[Si](C)(C)C(C)(C)C)[C@@]3(OS(=O)(=O)C=C3N)[C@H]2O[Si](C)(C)C(C)(C)C)c1=O
IC50 [8]: 293000 to 430000 nM
IC50 [9]: 3700 to 11000 nM
EC50 [10]: 80 to 4500 nM
half-life [11]: 30 min

COC(=O)P(=O)([O-])OCCCn1c(=O)c(C)cn([C@@H]2O[C@H](CO[Si](C)(C)C(C)(C)C)[C@@]3(OS(=O)(=O)C=C3N)[C@H]2O[Si](C)(C)C(C)(C)C)c1=O.[Na+]
IC50 [8]: 293000 to 430000 nM
IC50 [9]: 3700 to 11000 nM
EC50 [10]: 80 to 4500 nM
half-life [11]: 30 min

Cc1cn([C@@H]2O[C@H](CO[Si](C)(C)C(C)(C)C)[C@@]3(OS(=O)(=O)C=C3N)[C@H]2O[Si](C)(C)C(C)(C)C)c(=O)n(CCCOP(=O)(O)C(=O)O)c1=O
IC50 [8]: 293000 to 430000 nM
IC50 [9]: 3700 to 11000 nM
EC50 [10]: 80 to 4500 nM
half-life [11]: 30 min
EC50 [12]: 160 nM

Cc1cn([C@@H]2O[C@H](CO[Si](C)(C)C(C)(C)C)[C@@]3(OS(=O)(=O)C=C3N)[C@H]2O[Si](C)(C)C(C)(C)C)c(=O)n(CCCOP(=O)(O)C(=O)OCc2ccccc2)c1=O
IC50 [8]: 293000 to 430000 nM
IC50 [9]: 3700 to 11000 nM
EC50 [10]: 80 to 4500 nM
half-life [11]: 30 min

COC(=O)P(=O)(OC)OCCCn1c(=O)c(C)cn([C@@H]2O[C@H](CO[Si](C)(C)C(C)(C)C)[C@@]3(OS(=O)(=O)C=C3N)[C@H]2O[Si](C)(C)C(C)(C)C)c1=O (stereo partly specified)
EC50 [10]: 80 to 4500 nM
half-life [11]: 30 min

Cc1cn([C@@H]2O[C@H](CO[Si](C)(C)C(C)(C)C)[C@@]3(OS(=O)(=O)C=C3N)[C@H]2O[Si](C)(C)C(C)(C)C)c(=O)n(CCCn2c(=O)c(C)cn([C@H]3C[C@H](N=[N+]=[N-])[C@@H](CO)O3)c2=O)c1=O
EC50 [13]: 90 nM

Cc1cn([C@@H]2O[C@H](CO[Si](C)(C)C(C)(C)C)[C@@]3(OS(=O)(=O)C=C3N)[C@H]2O[Si](C)(C)C(C)(C)C)c(=O)n(CCCO)c1=O
EC50 [10]: 100 nM

Cc1cn([C@H]2C=C[C@@H](COC(=O)OC[C@H]3O[C@@H](n4cc(C)c(=O)[nH]c4=O)C[C@@H]3N=[N+]=[N-])O2)c(=O)[nH]c1=O
EC50 [4]: 6 nM

NC(=O)c1ncn([C@@H]2O[C@H](COP(=O)(O)OC[C@@H]3CC[C@H](n4cnc5c(=O)[nH]cnc54)O3)[C@@H](O)[C@H]2O)n1
remaining at 72 h, 100 µM [14]: 44%

Nc1nc(N)nc(OCCOCP(=O)(O)O)n1
EC50 [15]: 350 nM
EC50 (Human alphaherpesvirus 3): 3100 nM
EC50 (Hepatitis B virus): 3100 nM
EC50 [16]: 3700 nM
EC50 [4]: 2400 nM

CCc1c(Sc2cc(C)cc(C)c2)n(CCCCC(=O)NCCCCCCCCCCCCNc2ccn([C@H]3CC[C@@H](CO)O3)c(=O)n2)c(=O)[nH]c1=O
EC50 [17]: 450 nM
EC50 [18]: 450 nM
EC50 [19]: 450 nM
EC50 [20]: 450 nM

Cc1cn([C@H]2C=C[C@@H](COC(=O)OC[C@@H]3C=C[C@H](n4cc(C)c(=O)[nH]c4=O)O3)O2)c(=O)[nH]c1=O
EC50 [4]: 240 nM

Cc1cn([C@H]2C[C@H](N=[N+]=[N-])[C@@H](COC(=O)NCCCCNC(=O)OC[C@H]3O[C@@H](n4cc(C)c(=O)[nH]c4=O)C[C@@H]3N=[N+]=[N-])O2)c(=O)[nH]c1=O
EC50 [4]: 26000 nM

Cc1cn([C@H]2C=C[C@@H](COC(=O)NCCCCNC(=O)OC[C@H]3O[C@@H](n4cc(C)c(=O)[nH]c4=O)C[C@@H]3N=[N+]=[N-])O2)c(=O)[nH]c1=O
EC50 [4]: 96300 nM

COc1ccc2ccccc2c1/C=N/NC(=O)c1ccc(-c2ccccc2)cc1
IC50 [1]: 5000 nM
IC50 [2]: 500 nM

O=C(Oc1ccc2c(c1OC(=O)c1ccccc1)C(=O)c1ccccc1C2=O)c1ccccc1
IC50 (Gag-Pol polyprotein): 12000 nM
IC50 [21]: 13000 nM

Cc1cn([C@H]2C[C@H](N=[N+]=[N-])[C@@H](COP(=O)(O)OC[C@H]3O[C@@H](n4cnc(C(N)=O)n4)[C@H](O)[C@@H]3O)O2)c(=O)[nH]c1=O
remaining at 72 h, 100 µM [14]: 36%

Cc1cn([C@H]2C[C@H](N=[N+]=[N-])[C@@H](COC(=O)OC[C@H]3O[C@@H](n4cc(C)c(=O)[nH]c4=O)C[C@@H]3N=[N+]=[N-])O2)c(=O)[nH]c1=O
EC50 [4]: 2 nM

COc1ccc2ccccc2c1/C=N/NC(=O)c1ccc(Oc2ccccc2)cc1
IC50 [1]: 7000 nM
IC50 [2]: 400 nM

Cc1cn([C@H]2C[C@H](N=[N+]=[N-])[C@@H](COP(=O)(OC[C@@H]3CC[C@H](n4cnc5c(=O)[nH]cnc54)O3)OC[C@@H]3CC[C@H](n4cnc5c(=O)[nH]cnc54)O3)O2)c(=O)[nH]c1=O
EC50 [3]: 165 nM

Cc1cccc(C)c1OCC(=O)N[C@@H](Cc1ccccc1)[C@H](OC(=O)CCCC(=O)NCC(=O)OC[C@H]1O[C@@H](n2cc(C)c(=O)[nH]c2=O)C[C@@H]1N=[N+]=[N-])C(=O)N1CSC(C)(C)[C@H]1C(=O)NC(C)(C)C
EC50 [5]: 0.1 nM

Cc1cn([C@H]2C[C@H](N=[N+]=[N-])[C@@H](COP(=O)(O)OC[C@@H]3CC[C@H](n4cnc5c(=O)[nH]cnc54)O3)O2)c(=O)[nH]c1=O
EC50 [3]: 2 nM
remaining at 72 h, 100 µM [14]: 57%

Cc1cn([C@H]2C=C[C@@H](COC(=O)OCc3ccc(NC(=O)/C(O)=C/C(=O)c4cc(OCc5ccccc5)cc(OCc5ccccc5)c4)cc3)O2)c(=O)[nH]c1=O (stereo in doubt)
EC50 [4]: 430 nM

Nc1ncnc2c1ncn2CCOCP(=O)(O)O [ADEFOVIR]
IC50 (Hepatitis B virus): 700 nM
EC50 [4]: 2000 nM

O=C1c2ccccc2C(=O)c2c1ccc(O)c2O [ATHRAQUINONES A]
IC50 (Gag-Pol polyprotein): 79000 nM
IC50 [21]: > 100000 nM

O=c1[nH]cnc2c1ncn2[C@H]1CC[C@@H](CO)O1 [DIDANOSINE]
EC50 [3]: 13300 nM

C[C@H](Cn1cnc2c(N)ncnc21)OCP(=O)(O)O [TENOFOVIR ANHYDROUS]
EC50 (Herpesviridae sp. [6]): 105 µg/mL (≈ 366 µM)

Cc1cn([C@H]2C[C@H](N=[N+]=[N-])[C@@H](CO)O2)c(=O)[nH]c1=O [ZIDOVUDINE]
EC50 [3]: 2 nM
EC50 [5]: 6.2 nM
EC50 [4]: 126 nM
